Source: publication PMC3050433, “The effects of maribavir on the autophosphorylation of ganciclovir resistant mutants of the cytomegalovirus UL97 protein” (Herpesviridae, 2010)
Residue numbers refer to the chain shown, from its start.

Legend:
Assay type in all cases: biochemical
UL97 M460I = biological target: T1, UL97 M460I (Human cytomegalovirus, UniProt Q68101, M460I); experiment: UL97 autophosphorylation protein kinase assay, M460I
T1 construct: PCR reaction to generate the full length UL97; honey bee melittin secretion signal (N); made in house; host or cells: Sf21 insect cells, recombinant baculovirus (pMelBac C)
T1 sequence (Q68101 1-707 M460I): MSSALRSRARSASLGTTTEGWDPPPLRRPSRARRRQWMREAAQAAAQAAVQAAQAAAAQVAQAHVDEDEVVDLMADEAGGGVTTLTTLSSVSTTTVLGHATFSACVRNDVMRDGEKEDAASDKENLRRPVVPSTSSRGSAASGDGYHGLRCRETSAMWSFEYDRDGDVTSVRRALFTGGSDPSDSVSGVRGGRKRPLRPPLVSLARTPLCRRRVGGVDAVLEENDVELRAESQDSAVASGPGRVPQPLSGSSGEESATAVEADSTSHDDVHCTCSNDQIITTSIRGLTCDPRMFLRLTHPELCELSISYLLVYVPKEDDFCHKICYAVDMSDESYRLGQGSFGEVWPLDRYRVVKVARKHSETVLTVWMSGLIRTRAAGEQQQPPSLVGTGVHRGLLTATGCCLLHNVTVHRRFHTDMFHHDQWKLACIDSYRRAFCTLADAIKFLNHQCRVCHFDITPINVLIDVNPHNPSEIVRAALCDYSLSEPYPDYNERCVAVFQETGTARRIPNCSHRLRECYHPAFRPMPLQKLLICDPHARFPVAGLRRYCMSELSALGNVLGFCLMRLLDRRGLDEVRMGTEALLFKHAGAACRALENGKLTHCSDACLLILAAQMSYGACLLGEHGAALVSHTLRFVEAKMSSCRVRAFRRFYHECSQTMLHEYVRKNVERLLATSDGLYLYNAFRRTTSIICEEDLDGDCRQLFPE
Procedure: (§1) Analysis of the autophosphorylation of wild type and mutant UL97 protein species was performed by a standard protein kinase assay as previously described (46). Briefly, purified protein was added to 2× protein kinase buffer (100 mM Tris HCl, pH9.0, 20 mM MgCl2, 10 μM ATP, 4 mM DTT, 2 M NaCl) and 370 KBq [γ^32P] ATP (Amersham), made up to 20 μl with SDW and incubated at 37°C. The reactions were terminated by the addition of 2× SDS sample buffer followed by boiling for 3 minutes. The amount of radiolabelled phosphate incorporated by autophosphorylation was analysed by SDS-PAGE and measured using the Biorad Mulitanalyst. The protein kinase assays were initially performed for 2 to 60 minutes to determine the maximum rate of phosphate incorporation, all assays were then performed at the maximum rate which equated to 5 minutes.
(§2) Enzyme kinetic analysis was performed on the purified wild type and mutant UL97 protein species as above using increasing concentrations of ATP (2 μM to 20 μM). The amount of incorporated radiolabelled phosphate was plotted against the concentration of ATP in a Lineweaver Burke plot to determine the Km for ATP for each UL97 species. […]

UL97 L595F = biological target: T2, UL97 L595F (Human cytomegalovirus, UniProt Q68101, L595F); experiment: UL97 autophosphorylation protein kinase assay, L595F
T2 construct: PCR reaction to generate the full length UL97; honey bee melittin secretion signal (N); made in house; host or cells: Sf21 insect cells, recombinant baculovirus (pMelBac C)
T2 sequence (Q68101 1-707 L595F): T1 sequence (Q68101 1-707 M460I) with I460M, L595F
Procedure: as §1, §2

UL97 H520Q = biological target: T3, UL97 H520Q (Human cytomegalovirus, UniProt Q68101, H520Q); experiment: UL97 autophosphorylation protein kinase assay, H520Q
T3 construct: PCR reaction to generate the full length UL97; honey bee melittin secretion signal (N); made in house; host or cells: Sf21 insect cells, recombinant baculovirus (pMelBac C)
T3 sequence (Q68101 1-707 H520Q): T1 sequence (Q68101 1-707 M460I) with I460M, H520Q
Procedure: as §1, §2

Structure (SMILES) | Km (UL97 M460I; M460I, read-out: Km for ATP) | Km (UL97 L595F; L595F, read-out: Km for ATP) | Km (UL97 H520Q; H520Q, read-out: Km for ATP) | IC50 (UL97 M460I; M460I mutant) | IC50 (UL97 L595F; L595F mutant) | IC50 (UL97 H520Q; H520Q mutant)
Nc1ncnc2c1ncn2[C@@H]1O[C@H](COP(=O)(O)OP(=O)(O)OP(=O)(O)O)[C@@H](O)[C@H]1O [ATP] | 28 ± 2 µM | 31 ± 4.5 µM | 25 ± 2.4 µM | – | – | –
CC(C)Nc1nc2cc(Cl)c(Cl)cc2n1[C@H]1O[C@@H](CO)[C@H](O)[C@@H]1O [maribavir, 5,6-dichloro-2-(isopropylamino)-1-beta-L-ribofuranosyl-1H-benzimidazole] | – | – | – | 0.0048 µM | 0.028 µM | 0.033 µM
